Like-named read-outs stand apart in the source and are kept apart here.
Key:
Assay type in all cases: in vivo, mice
Hs746T tumors = conditions: for % Inhibition: mg/kg/day: PM00104 0.90 IV, 5-FU 50 at DPI 15 and 100 at DPI 22 & 29 IP
Description: Female athymic nude mice (Harlan Sprague Dawley, Madison, Wis.) were utilized for all experiments. Animals were housed in ventilated rack caging with food and water ad libitum. The mice were acclimated for at least 5 days prior to tumor implantation with a tumor cell suspension.
The tumor model used in these studies was Hs746T cell line, which was obtained from the ATCC (Manassas, Va.).
Treatments were initiated on DPI 15.
5-FU was provided as a solution which was further diluted with water for injection.
(§1) Tumor size measurements were recorded twice weekly from the treatment initiation until the termination of the study.
(§2) Mean, standard deviation and standard error of the mean were determined for tumor volume for all animal groups at all assessments. Student's t test was performed on tumor volumes at each measurement day, including at the end of the study, to determine whether there were any statistically significant differences between combination treatment groups and single monotherapy treatment groups.

CaLu-6 tumors = tested on: CaLu-6 tumors
Procedure: (§3) Female athymic nude mice (Harlan Sprague Dawley, Madison, Wis.) were utilized for all experiments. Animals were housed in ventilated rack caging with food and water ad libitum. The mice were acclimated for at least 5 days prior to tumor implantation.
The tumor model used in this study was CaLu-6 cell line which is a human lung cancer cell line obtained from the ATCC (Manassas, Va.). CaLu-6 cells were grown in Eagle's Minimum Essential Medium (MEM), 10% FBS and 2 mM L-glutamine. Cells from in vitro passage 12 were implanted SC into study mice using a 1 ml syringe with a 13G trocar: 5×10^6 cells/mouse in 0.2 ml 50% Matrigel/50% MEM medium of CaLu-6 without serum or antibiotics. Bacterial culture was taken on cells used to implant the study.
When tumors reached an appropriated volume, within the size range of 99±17 mm^3 (mean±SD), mice were randomized into the treatment and control groups based on tumor weight by using LabCat® In Life module V 8.0 SP1 tumor tracking and measurement software. Treatments were initiated on DPI 9.
(§4) Tumor size measurements were recorded 2-3 times/week from the treatment initiation until the termination of the study.
as §2

NCI-H460 tumors = tested on: NCI-H460 tumors
Description: as §3
The tumor model used in this study was NCI-H460 cell line which is a human NSCLC cell line obtained from the ATCC (Manassas, Va.). […] Cells from in vitro passage 9 were those implanted SC into study mice.
Treatments were initiated on DPI 8.
as §4, §2

BxPC-3 tumors = conditions: mg/kg/day: PM00104 0.90 IV
Procedure: Female CB17.SCID mice (Charles River Lab.) were utilized for all experiments. Animals were housed in ventilated rack caging with food and water ad libitum. The mice were acclimated for at least 5 days prior to tumor implantation with a tumor cell suspension.
The tumor model used in these studies was BxPC-3 cell line, which was obtained from the ATCC (Manassas, Va.).
Treatments were initiated on DPI 9.
as §1, §2

[1] = PM00104 0.9, 5-FU 50 (DPI 15) then 100 (DPI 22 & 29), irinotecan 20, doxorubicin 6 mg/kg/day
[2] = Gemcitabine 90 mg/kg/day IP, alone or with PM00104 0.9 mg/kg/day IV
[3] = PM00104 0.9 mg/kg/day IV and/or Gemcitabine 180 mg/kg/day IP

SMILES: O=c1[nH]cc(F)c(=O)[nH]1 [5-FU, 5-fluorouracil]
- % T/C on day 15 (Hs746T tumors; [1]): 102.3%
- % T/C on day 19 (Hs746T tumors; [1]): 96.4%
- % T/C on day 22 (Hs746T tumors; [1]): 88.0%
- % T/C on day 26 (Hs746T tumors; [1]): 93.4%
- % T/C on day 29 (Hs746T tumors; [1]): 94.5%
- % T/C on day 33 (Hs746T tumors; [1]): 95.3%
- % Inhibition (Hs746T tumors; day 15): −2.3%
- % Inhibition (Hs746T tumors; day 19): 3.6%
- % Inhibition (Hs746T tumors; day 22): 12.0%
- % Inhibition (Hs746T tumors; day 26): 6.6%
- % Inhibition (Hs746T tumors; day 29): 5.5%
- % Inhibition (Hs746T tumors; day 33): 4.7%

SMILES: Nc1ccn([C@@H]2O[C@H](CO)[C@@H](O)C2(F)F)c(=O)n1 [Gemcitabine, gemcitabine]
- % T/C on day 9 (CaLu-6 tumors; [2]): 100.6%
- % T/C on day 12 (CaLu-6 tumors; [2]): 37.8%
- % T/C on day 15 (CaLu-6 tumors; [2]): 78.8%
- % T/C on day 19 (CaLu-6 tumors; [2]): 64.8%
- % T/C on day 22 (CaLu-6 tumors; [2]): 72.0%
- % T/C on day 26 (CaLu-6 tumors; [2]): 67.1%
- % T/C on day 29 (CaLu-6 tumors; [2]): 61.3%
- % T/C on day 34 (CaLu-6 tumors; [2]): 72.8%
- % T/C on day 40 (CaLu-6 tumors; [2]): 76.1%
- % T/C on day 9 (CaLu-6 tumors; [3]): 99.6%
- % T/C on day 12 (CaLu-6 tumors; [3]): 39.0%
- % T/C on day 15 (CaLu-6 tumors; [3]): 61.0%
- % T/C on day 19 (CaLu-6 tumors; [3]): 62.5%
- % T/C on day 22 (CaLu-6 tumors; [3]): 48.7%
- % T/C on day 26 (CaLu-6 tumors; [3]): 53.0%
- % T/C on day 29 (CaLu-6 tumors; [3]): 46.8%
- % T/C on day 34 (CaLu-6 tumors; [3]): 52.8%
- % T/C on day 40 (CaLu-6 tumors; [3]): 60.4%
- % T/C on day 8 (NCI-H460 tumors; [2]): 108.6%
- % T/C on day 11 (NCI-H460 tumors; [2]): 83.2%
- % T/C on day 14 (NCI-H460 tumors; [2]): 90.2%
- % T/C on day 18 (NCI-H460 tumors; [2]): 65.3%
- % T/C on day 21 (NCI-H460 tumors; [2]): 73.4%
- % T/C on day 25 (NCI-H460 tumors; [2]): 63.2%
- % T/C on day 28 (NCI-H460 tumors; [2]): 76.9%
- % T/C on day 8 (NCI-H460 tumors; [3]): 101.3%
- % T/C on day 14 (NCI-H460 tumors; [3]): 67.5%
- % T/C on day 18 (NCI-H460 tumors; [3]): 52.0%
- % T/C on day 21 (NCI-H460 tumors; [3]): 69.3%
- % T/C on day 25 (NCI-H460 tumors; [3]): 58.7%
- % T/C on day 28 (NCI-H460 tumors; [3]): 56.8%

SMILES: C#Cc1cccc(Nc2ncnc3cc(OCCOC)c(OCCOC)cc23)c1 [erlotinib]
- % Inhibition (BxPC-3 tumors; day 9, erlotinib 15 PO): 0.5%
- % T/C on day (BxPC-3 tumors; day 9, erlotinib 15 PO): 99.5%
- % Inhibition (BxPC-3 tumors; day 9, erlotinib 30 PO): −4.2%
- % T/C on day (BxPC-3 tumors; day 9, erlotinib 30 PO): 104.2%
- % Inhibition (BxPC-3 tumors; day 9, erlotinib 50 PO): −2.5%
- % T/C on day (BxPC-3 tumors; day 9, erlotinib 50 PO): 102.5%
- % Inhibition (BxPC-3 tumors; day 12, erlotinib 15 PO): 24.1%
- % T/C on day (BxPC-3 tumors; day 12, erlotinib 15 PO): 75.9%
- % Inhibition (BxPC-3 tumors; day 12, erlotinib 30 PO): 15.1%
- % T/C on day (BxPC-3 tumors; day 12, erlotinib 30 PO): 84.9%
- % Inhibition (BxPC-3 tumors; day 12, erlotinib 50 PO): 15.1%
- % T/C on day (BxPC-3 tumors; day 12, erlotinib 50 PO): 84.9%
- % Inhibition (BxPC-3 tumors; day 15, erlotinib 15 PO): 7.8%
- % T/C on day (BxPC-3 tumors; day 15, erlotinib 15 PO): 92.2%
- % Inhibition (BxPC-3 tumors; day 15, erlotinib 30 PO): −5.8%
- % T/C on day (BxPC-3 tumors; day 15, erlotinib 30 PO): 105.8%
- % Inhibition (BxPC-3 tumors; day 15, erlotinib 50 PO): −14.2%
- % T/C on day (BxPC-3 tumors; day 15, erlotinib 50 PO): 114.2%
- % Inhibition (BxPC-3 tumors; day 19, erlotinib 15 PO): 21.0%
- % T/C on day (BxPC-3 tumors; day 19, erlotinib 15 PO): 79.0%
- % Inhibition (BxPC-3 tumors; day 19, erlotinib 30 PO): 6.5%
- % T/C on day (BxPC-3 tumors; day 19, erlotinib 30 PO): 93.5%
- % Inhibition (BxPC-3 tumors; day 19, erlotinib 50 PO): −2.6%
- % T/C on day (BxPC-3 tumors; day 19, erlotinib 50 PO): 102.6%
- % Inhibition (BxPC-3 tumors; day 21, erlotinib 15 PO): 33.8%
- % T/C on day (BxPC-3 tumors; day 21, erlotinib 15 PO): 66.2%
- % Inhibition (BxPC-3 tumors; day 21, erlotinib 30 PO): 16.3%
- % T/C on day (BxPC-3 tumors; day 21, erlotinib 30 PO): 83.7%
- % Inhibition (BxPC-3 tumors; day 21, erlotinib 50 PO): 15.5%
- % T/C on day (BxPC-3 tumors; day 21, erlotinib 50 PO): 84.5%
- % Inhibition (BxPC-3 tumors; day 26, erlotinib 15 PO): 7.5%
- % T/C on day (BxPC-3 tumors; day 26, erlotinib 15 PO): 92.5%
- % Inhibition (BxPC-3 tumors; day 26, erlotinib 30 PO): −14.2%
- % T/C on day (BxPC-3 tumors; day 26, erlotinib 30 PO): 114.2%
- % Inhibition (BxPC-3 tumors; day 26, erlotinib 50 PO): 9.0%
- % T/C on day (BxPC-3 tumors; day 26, erlotinib 50 PO): 91.0%
- % Inhibition (BxPC-3 tumors; day 29, erlotinib 15 PO): 16.2%
- % T/C on day (BxPC-3 tumors; day 29, erlotinib 15 PO): 83.8%
- % Inhibition (BxPC-3 tumors; day 29, erlotinib 30 PO): 15.2%
- % T/C on day (BxPC-3 tumors; day 29, erlotinib 30 PO): 84.8%
- % Inhibition (BxPC-3 tumors; day 29, erlotinib 50 PO): 40.7%
- % T/C on day (BxPC-3 tumors; day 29, erlotinib 50 PO): 59.3%
- % Inhibition (BxPC-3 tumors; day 33, erlotinib 15 PO): 7.9%
- % T/C on day (BxPC-3 tumors; day 33, erlotinib 15 PO): 92.1%
- % Inhibition (BxPC-3 tumors; day 33, erlotinib 30 PO): 13.0%
- % T/C on day (BxPC-3 tumors; day 33, erlotinib 30 PO): 87.0%
- % Inhibition (BxPC-3 tumors; day 33, erlotinib 50 PO): 12.1%
- % T/C on day (BxPC-3 tumors; day 33, erlotinib 50 PO): 87.9%
- % Inhibition (BxPC-3 tumors; day 40, erlotinib 15 PO): 18.8%
- % T/C on day (BxPC-3 tumors; day 40, erlotinib 15 PO): 81.2%
- % Inhibition (BxPC-3 tumors; day 40, erlotinib 30 PO): 14.5%
- % T/C on day (BxPC-3 tumors; day 40, erlotinib 30 PO): 85.5%
- % Inhibition (BxPC-3 tumors; day 40, erlotinib 50 PO): 15.4%
- % T/C on day (BxPC-3 tumors; day 40, erlotinib 50 PO): 84.6%
